From US20230365592A1 (Agios Pharmaceuticals, Inc., priority 2022, published 2023)

target: T1, human PAH with the R408W mutation (Homo sapiens, UniProt P00439, R408W); experiment: Cell Based Phenylalanine Flux Assay; settings: A375 cells expressing human PAH R408W; 24 hrs compound incubation; 13C-Tyrosine by LC-MS; average where tested multiple times; read-out: AC50;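 also: after compound treatment, cells received sepiapterin plus isotope-labelled Phenylalanine for 4 hours, then labelled Tyrosine in the medium was quantified, 10-point 2-fold dilution series run in duplicate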
T1 construct: expressed in transfected cells
T1 sequence (P00439 1-452 R408W): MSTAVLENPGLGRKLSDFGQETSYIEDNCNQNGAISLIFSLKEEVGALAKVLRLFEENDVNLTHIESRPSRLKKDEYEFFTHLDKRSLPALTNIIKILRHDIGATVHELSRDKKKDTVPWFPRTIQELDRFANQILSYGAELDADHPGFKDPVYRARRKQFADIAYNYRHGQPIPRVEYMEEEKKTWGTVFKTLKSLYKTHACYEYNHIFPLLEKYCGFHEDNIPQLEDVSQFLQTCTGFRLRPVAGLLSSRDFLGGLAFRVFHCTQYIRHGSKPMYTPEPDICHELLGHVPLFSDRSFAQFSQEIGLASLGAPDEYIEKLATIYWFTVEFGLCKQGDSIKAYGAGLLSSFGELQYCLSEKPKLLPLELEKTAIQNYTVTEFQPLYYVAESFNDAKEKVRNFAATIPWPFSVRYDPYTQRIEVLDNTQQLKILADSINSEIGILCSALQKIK

Structure (SMILES)	AC50 [µM]
Cc1ccc2cc([C@@H]3c4nc[nH]c4CCN3C(=O)c3nnc(-c4cnn(C)c4)o3)nn2c1 [Example 2380, (S)-(5-(1-methyl-1H-pyrazol-4-yl)-1,3,4-oxadiazol-2-yl)(4-(6-methylpyrazolo[1,5-a]pyridin-2-yl)-6,7-dihydro-1H-imidazo[4,5-c]pyridin-5(4H)-yl)methanone]	1 to 5
CC(C)(O)c1ncc(C(=O)N2CCc3[nH]cnc3[C@H]2c2cc3c(F)cccn3n2)o1 [Example 2382, (S)-(4-(4-fluoropyrazolo[1,5-a]pyridin-2-yl)-6,7-dihydro-1H-imidazo[4,5-c]pyridin-5(4H)-yl)(2-(2-hydroxypropan-2-yl)oxazol-5-yl)methanone]	1 to 5
Cc1ccn2nc([C@@H]3c4nc[nH]c4CCN3C(=O)c3nnc(-c4ccccn4)o3)cc2c1 [Example 2384, (S)-(4-(5-methylpyrazolo[1,5-a]pyridin-2-yl)-6,7-dihydro-1H-imidazo[4,5-c]pyridin-5(4H)-yl)(5-(pyridin-2-yl)-1,3,4-oxadiazol-2-yl)methanone]	1 to 5
Cc1ccn2nc([C@H]3c4nc[nH]c4CCN3C(=O)c3nnc(-c4ccccn4)o3)cc2c1 [Example 2385, (R)-(4-(5-methylpyrazolo[1,5-a]pyridin-2-yl)-6,7-dihydro-1H-imidazo[4,5-c]pyridin-5(4H)-yl)(5-(pyridin-2-yl)-1,3,4-oxadiazol-2-yl)methanone]	> 5
O=C(c1ccnn1C1CC1)N1CCc2[nH]cnc2[C@H]1c1cc2ccccn2n1 [Example 2386, (S)-(1-cyclopropyl-1H-pyrazol-5-yl)(4-(pyrazolo[1,5-a]pyridin-2-yl)-6,7-dihydro-1H-imidazo[4,5-c]pyridin-5(4H)-yl)methanone]	1 to 5
O=C(c1ccnn1-c1ccccn1)N1CCc2[nH]cnc2[C@H]1c1cc2c(F)cccn2n1 [Example 2388, (S)-(4-(4-fluoropyrazolo[1,5-a]pyridin-2-yl)-6,7-dihydro-1H-imidazo[4,5-c]pyridin-5(4H)-yl)(1-(pyridin-2-yl)-1H-pyrazol-5-yl)methanone]	1 to 5
Cc1cc(C(=O)N2CCc3[nH]cnc3[C@H]2c2cc3c(F)cccn3n2)n(C)n1 [Example 2390, (S)-(1,3-dimethyl-1H-pyrazol-5-yl)(4-(4-fluoropyrazolo[1,5-a]pyridin-2-yl)-6,7-dihydro-1H-imidazo[4,5-c]pyridin-5(4H)-yl)methanone]	1 to 5
COc1cccn2nc([C@@H]3c4nc[nH]c4CCN3C(=O)c3nc(C)nn3C)cc12 [Example 2393, (S)-(1,3-dimethyl-1H-1,2,4-triazol-5-yl)(4-(4-methoxypyrazolo[1,5-a]pyridin-2-yl)-6,7-dihydro-1H-imidazo[4,5-c]pyridin-5(4H)-yl)methanone]	1 to 5
Cc1cccc2cc([C@H]3c4nc[nH]c4CCN3C(=O)c3nnc(-c4cn(C)cn4)o3)nn12 [Example 2394, (R)-(5-(1-methyl-1H-imidazol-4-yl)-1,3,4-oxadiazol-2-yl)(4-(7-methylpyrazolo[1,5-a]pyridin-2-yl)-6,7-dihydro-1H-imidazo[4,5-c]pyridin-5(4H)-yl)methanone]	> 5
Cc1cccc2cc([C@@H]3c4nc[nH]c4CCN3C(=O)c3nnc(-c4cn(C)cn4)o3)nn12 [Example 2395, (S)-(5-(1-methyl-1H-imidazol-4-yl)-1,3,4-oxadiazol-2-yl)(4-(7-methylpyrazolo[1,5-a]pyridin-2-yl)-6,7-dihydro-1H-imidazo[4,5-c]pyridin-5(4H)-yl)methanone]	1 to 5
Cn1nc(C(F)F)nc1C(=O)N1CCc2[nH]cnc2[C@H]1c1cc2cccc(Cl)n2n1 [Example 2396, (S)-(4-(7-chloropyrazolo[1,5-a]pyridin-2-yl)-6,7-dihydro-1H-imidazo[4,5-c]pyridin-5(4H)-yl)(3-(difluoromethyl)-1-methyl-1H-1,2,4-triazol-5-yl)methanone]	1 to 5
Cn1nc(C(F)(F)F)nc1C(=O)N1CCc2[nH]cnc2[C@H]1c1cc2c(F)cccn2n1 [Example 2398, (S)-(4-(4-fluoropyrazolo[1,5-a]pyridin-2-yl)-6,7-dihydro-1H-imidazo[4,5-c]pyridin-5(4H)-yl)(1-methyl-3-(trifluoromethyl)-1H-1,2,4-triazol-5-yl)methanone]	1 to 5

Further lines, results first:

AC50 [µM]	Structure (SMILES)
1 to 5	Cn1nc(C(F)(F)F)nc1C(=O)N1CCc2[nH]cnc2[C@@H]1c1cc2c(F)cccn2n1 [Example 2399, (R)-(4-(4-fluoropyrazolo[1,5-a]pyridin-2-yl)-6,7-dihydro-1H-imidazo[4,5-c]pyridin-5(4H)-yl)(1-methyl-3-(trifluoromethyl)-1H-1,2,4-triazol-5-yl)methanone]
< 0.5	O=C(c1ocnc1C(F)F)N1CCc2[nH]cnc2[C@H]1c1cc2cc(F)ccn2n1 [Example 2400, (S)-(4-(difluoromethyl)oxazol-5-yl)(4-(5-fluoropyrazolo[1,5-a]pyridin-2-yl)-6,7-dihydro-1H-imidazo[4,5-c]pyridin-5(4H)-yl)methanone]
1 to 5	O=C(c1ocnc1C(F)F)N1CCc2[nH]cnc2[C@@H]1c1cc2cc(F)ccn2n1 [Example 2401, (R)-(4-(difluoromethyl)oxazol-5-yl)(4-(5-fluoropyrazolo[1,5-a]pyridin-2-yl)-6,7-dihydro-1H-imidazo[4,5-c]pyridin-5(4H)-yl)methanone]
1 to 5	Cc1ccc2cc([C@@H]3c4nc[nH]c4CCN3C(=O)c3nc(C(F)F)nn3C)nn2c1 [Example 2403, (S)-(3-(difluoromethyl)-1-methyl-1H-1,2,4-triazol-5-yl)(4-(6-methylpyrazolo[1,5-a]pyridin-2-yl)-6,7-dihydro-1H-imidazo[4,5-c]pyridin-5(4H)-yl)methanone]
> 5	O=C(c1nnc(C2CC2)o1)N1CCc2[nH]cnc2[C@@H]1c1cc2ccc(F)cn2n1 [Example 2405, (R)-(5-cyclopropyl-1,3,4-oxadiazol-2-yl)(4-(6-fluoropyrazolo[1,5-a]pyridin-2-yl)-6,7-dihydro-1H-imidazo[4,5-c]pyridin-5(4H)-yl)methanone]
< 0.5	CC(C)(O)c1nc(C(F)F)c(C(=O)N2CCc3[nH]cnc3[C@H]2c2cc3cc(C(F)(F)F)ccn3n2)o1 [Example 2406, (S)-(4-(difluoromethyl)-2-(2-hydroxypropan-2-yl)oxazol-5-yl)(4-(5-(trifluoromethyl)pyrazolo[1,5-a]pyridin-2-yl)-6,7-dihydro-1H-imidazo[4,5-c]pyridin-5(4H)-yl)methanone]
1 to 5	CC(C)(C)c1nnc(C(=O)N2CCc3[nH]cnc3[C@H]2c2cc3cccc(C(F)(F)F)n3n2)o1 [Example 2409, (S)-(5-(tert-butyl)-1,3,4-oxadiazol-2-yl)(4-(7-(trifluoromethyl)pyrazolo[1,5-a]pyridin-2-yl)-6,7-dihydro-1H-imidazo[4,5-c]pyridin-5(4H)-yl)methanone]
0.5 to 1	Cn1nc(C(F)F)nc1C(=O)N1CCc2[nH]cnc2[C@H]1c1cc2cc(C(F)(F)F)ccn2n1 [Example 2410, (S)-(3-(difluoromethyl)-1-methyl-1H-1,2,4-triazol-5-yl)(4-(5-(trifluoromethyl)pyrazolo[1,5-a]pyridin-2-yl)-6,7-dihydro-1H-imidazo[4,5-c]pyridin-5(4H)-yl)methanone]
